According to patent publication US20190192548A1, “USE OF CYCLIC PHOSPHATE SUBSTITUTED NUCLEOSIDE DERIVATIVESFOR THE TREATMENT OF VIRAL DISEASES” (MERCK SHARP & DOHME CORP., priority 2016, published 2019):
Where two headings read alike, the source gives them in different places.

How the values were obtained:
[1] = tested on: replicon cells (1b-Con1); test: Replicon activity assay (cell-based anti-HCV activity, replicon RNA by real-time RT-PCR)
Method: To measure cell-based anti-HCV activity of the compounds of the present invention, replicon cells (1b-Con1) are seeded at 5000 cells/well in 96-well plates one day prior to treatment with a compound of the invention. Various concentrations of a test compound of the invention in DMSO are then added to the replicon cells, with the final concentration of
(§1) DMSO at 0.5% and fetal bovine serum at 10% in the assay media. Cells are harvested three days post-dosing, and the replicon RNA level is determined using real-time RT-PCR (Taqman assay) with GAPDH RNA as endogenous control. EC50 values are calculated from experiments with 10 serial twofold dilutions of the inhibitor in triplicate. To measure cytotoxicity in replicon cells of an inhibitor, an MTS assay is performed according to the manufacturer's protocol for CellTiter 96 Aqueous One Solution Cell Proliferation Assay (Promega, Cat # G3580) three days post dosing on cells treated identically as in replicon activity assays. […] Cytotoxicity in other types of cells may be measured using the same MTS protocol.
(§2) Data were obtained using this method for selected compounds of the present invention, and are set forth below in Table 1.

[2] = Cytotoxicity assay in replicon cells (MTS, CellTiter 96); format: cell-based; conditions: three days post dosing, read-out: CC50 (EDU) Range
Method: as §1, §2

[3] = tested on: replicon cells; test: as above; format: cell-based; conditions: three days post dosing, read-out: CC50 (EDU) Range
Method: as §1, §2

[4] = Hepatitis C virus, 72 h, read-out: EC50 (1b) Range, replicon cells (1b-Con1), replicon RNA level three days post-dosing, GAPDH RNA as control
[5] = read-out: EC50 (1b) Range, replicon cells (1b-Con1), replicon RNA level three days post-dosing, GAPDH RNA as control

SMILES | EC50 [1, 4] [nM] | CC50 at 3 days [2] [nM] | EC50 [1, 5] [nM] | CC50 [3] [nM]
CC(C)OC(=O)[C@H](C)CCOP1(=O)OC[C@H]2O[C@@H](n3ccc(N)nc3=O)C(F)(F)[C@@H]2O1 (single isomer, unassigned) [Compound 7 Diastereomer 1] | 250 to 1000 | ≤ 50000 | – | –
CC(C)OC(=O)[C@H](C)CCOP1(=O)OC[C@H]2O[C@@H](n3ccc(N)nc3=O)C(F)(F)[C@@H]2O1 (single isomer, unassigned) [Compound 7 Diastereomer 2] | – | – | < 250 | ≤ 50000
CC(C)OC(=O)[C@@H](C)CCOP1(=O)OC[C@H]2O[C@@H](n3ccc(N)nc3=O)C(F)(F)[C@@H]2O1 (single isomer, unassigned) [Compound 8 Diastereomer 1] | 250 to 1000 | ≤ 50000 | – | –
CC(C)OC(=O)[C@@H](C)CCOP1(=O)OC[C@H]2O[C@@H](n3ccc(N)nc3=O)C(F)(F)[C@@H]2O1 (single isomer, unassigned) [Compound 8 Diastereomer 2] | – | – | 250 to 1000 | ≤ 50000
CCOC(=O)[C@@H](C)CCOP1(=O)OC[C@H]2O[C@@H](n3ccc(N)nc3=O)C(F)(F)[C@@H]2O1 (single isomer, unassigned) [Compound 9 Diastereomer 1] | 250 to 1000 | ≤ 50000 | – | –
CCOC(=O)[C@@H](C)CCOP1(=O)OC[C@H]2O[C@@H](n3ccc(N)nc3=O)C(F)(F)[C@@H]2O1 (single isomer, unassigned) [Compound 9 Diastereomer 2] | – | – | 250 to 1000 | ≤ 50000
CCOC(=O)[C@H](C)CCOP1(=O)OC[C@H]2O[C@@H](n3ccc(N)nc3=O)C(F)(F)[C@@H]2O1 (single isomer, unassigned) [Compound 10 Diastereomer 1] | 250 to 1000 | ≤ 50000 | – | –
CCOC(=O)[C@H](C)CCOP1(=O)OC[C@H]2O[C@@H](n3ccc(N)nc3=O)C(F)(F)[C@@H]2O1 (single isomer, unassigned) [Compound 10 Diastereomer 2] | – | – | 250 to 1000 | ≤ 50000
